# Activity calls are given as the source filed them.
# Legend:
# [1] = THP-1 cell cytotoxicity, cytotoxicity control, set 4 (AID 504911); type: functional; conditions: Mycobacterium tuberculosis
# [2] = A Cell Based Secondary Assay to Explore Cytotoxicity in HepG2 Cells of Compounds that Modulate Mycobacterium tuberculosis in Media Containing Glycerol versus Media without Glycerol (2).; type: functional
# [3] = Vero cell cytotoxicity, cytotoxicity control for M. tuberculosis inhibitor project, purified and synthesized samples, set 3 (AID 504684); type: functional
# [4] = A Cell Based Secondary Assay to Explore Cytotoxicity in THP-1 Cells of Compounds that Modulate Mycobacterium tuberculosis in Media Containing Glycerol versus Media without Glycerol (2).; type: functional
# [5] = Vero cell cytotoxicity, dose response, cytotoxicity control for M. tuberculosis growth inhibitor project, Vero cells, purified and synthesized compounds, set 5 (AID 504909); type: functional; conditions: Mycobacterium tuberculosis
# [6] = HepG2 cell cytotoxicity, cytotoxicity control, set 4 (AID 504910); type: functional; conditions: Mycobacterium tuberculosis
# [7] = Vero cell cytotoxicity, dose response, cytotoxicity control for M. tuberculosis growth inhibitor project, Vero cells, purified and synthesized compounds, set 4 (AID 504854); type: functional; conditions: Mycobacterium tuberculosis
# [8] = HepG2 cell cytotoxicity, dose response, cytotoxicity control, set 3 (AID 504853); type: functional; conditions: Mycobacterium tuberculosis
# [9] = microbe, parasite or virus in culture; type: functional; conditions: Mycobacterium tuberculosis
# [10] = THP-1 cell cytotoxicity, dose response, cytotoxicity control, set 3 (AID 504852); type: functional; conditions: Mycobacterium tuberculosis
# CHO-K1 = assay: Counterscreen for antagonists of the orexin 1 receptor (OX1R; HCRTR1): Homogeneous time resolved fluorescence (HTRF)-based cell-based dose response assay to identify antagonists of the parental CHO-K1 cell line. [Related pubchem assays (depositor defined):AID434989, AID435008, AID463079, AID485270, AID492963, AID492964, AID492965, AID493232, AID504699, AID504701]; type: functional; conditions: Cricetulus griseus;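 note: potency for inhibition of ATP-stimulated IP1 production as antagonists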
# Orexin receptor type 2 [11] = biological target: T1, Orexin receptor type 2 (Homo sapiens, UniProt O43614); assay: Counterscreen assay for antagonists of the orexin 1 receptor (OX1R; HCRTR1): Homogeneous Time Resolved Fluorescence (HTRF)-based cell-based dose response assay for antagonists of the orexin 2 receptor (OX2R; HCRTR2), run by assay provider.; type: functional
# [12] = biological target: T2, Orexin/Hypocretin receptor type 1 (Homo sapiens, UniProt O43613); assay: Homogeneous Time Resolved Fluorescence (HTRF)-based cell-based high throughput dose response assay for antagonists of the orexin 1 receptor (OX1R; HCRTR1). [Related pubchem assays (depositor defined):AID434989, AID435008, AID463079, AID485270, AID492963, AID492964, AID492965, AID493232, AID504717, AID504718]; type: functional
# Orexin receptor type 2 [13] = biological target: T1, Orexin receptor type 2; assay: Counterscreen assay for antagonists of the orexin 1 receptor (OX1R; HCRTR1): Fluorescence-based cell-based dose response assay for antagonists of the orexin 2 receptor (OX2R; HCRTR2), run by assay provider.; type: functional
# [14] = biological target: T2, Orexin/Hypocretin receptor type 1; assay: Fluorescence-based cell-based high throughput dose response assay for antagonists of the orexin 1 receptor (OX1R; HCRTR1). [Related pubchem assays (depositor defined):AID434989, AID435008, AID463079, AID485270, AID492963, AID492964, AID492965, AID493232, AID504717, AID504718]; type: functional
# [15] = Counterscreen for antagonists of the orexin 1 receptor (OX1R; HCRTR1): Fluorescence-based cell-based high throughput dose response assay to identify antagonists of the parental CHO cell line. [Related pubchem assays (depositor defined):AID434989, AID435008, AID463079, AID485270, AID492963, AID492964, AID492965, AID493232, AID504699, AID504701]; type: functional
# [16] = biological target: T3, Heat shock factor protein 1 (Mus musculus, UniProt P38532); assay: inhibition of MG132-induced HSE-luciferase signal, confirmation, cell-based, NIH3T3, luminescence, dose retest (AID 2382); type: functional;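 note: NIH3T3 fibroblasts with HSF1-driven luciferase reporter stressed by proteasome inhibitor MG132; luminescence from HSF1-driven luciferase expression after 8 hours of MG132 stress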
# T3 sequence (P38532 whole entry): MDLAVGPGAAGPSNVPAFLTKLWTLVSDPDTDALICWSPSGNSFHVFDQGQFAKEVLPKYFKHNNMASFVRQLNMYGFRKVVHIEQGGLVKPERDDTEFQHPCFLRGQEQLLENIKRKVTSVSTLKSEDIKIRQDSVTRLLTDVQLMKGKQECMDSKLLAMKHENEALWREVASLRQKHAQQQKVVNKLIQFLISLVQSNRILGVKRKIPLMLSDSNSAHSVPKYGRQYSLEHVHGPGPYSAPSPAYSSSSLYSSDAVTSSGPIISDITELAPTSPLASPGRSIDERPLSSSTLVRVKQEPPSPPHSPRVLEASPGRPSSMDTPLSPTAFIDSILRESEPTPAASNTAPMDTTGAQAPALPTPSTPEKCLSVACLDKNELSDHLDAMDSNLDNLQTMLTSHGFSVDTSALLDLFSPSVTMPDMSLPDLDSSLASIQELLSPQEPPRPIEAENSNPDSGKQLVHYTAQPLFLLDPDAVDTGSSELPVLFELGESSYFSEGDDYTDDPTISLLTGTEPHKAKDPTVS
# [17] = biological target: Dual specificity tyrosine-phosphorylation-regulated kinase 1A (Rattus norvegicus, UniProt Q63470); type: biochemical, Homo sapiens
# [18] = inhibitors of HIV Env-driven cell fusion, dose response, cherry-pick (AID 652057); type: functional, cell-based
# [19] = biological target: Luciferin 4-monooxygenase (Photuris pensylvanica, UniProt Q27757); assay: firefly luciferase enzyme inhibitors, dose response, counter-screen for HSF-1 reporter inhibitor project, biochemical, Cell Titer Glo, luminescence, cherry-picks (AID 588847)
# [20] = off-target signal loss in HeLa-CEM21 co-culture – HeLa F-luc CTL cells, cherry-picked, counter-screen for HIV-1 Env fusion inhibitor project, dose response (AID 652040); type: functional, cell-based;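 note: potency for signal decrease marking cytotoxic or nonspecific inhibition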
# [21] = inhibitors of clade B AD8 Env fusion, dose response, cell-based, cherry-pick (AID 652062); type: functional;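 note: luciferase signal from cell-cell fusion driven by HIV-1 clade B AD8 Env; potency is for inhibitors of fusion seen as a drop in luminescence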
# HEK293 = assay: inhibitors of LMP1-driven NF-kB reporter, dose response, cell-based, HEK293, luciferase, cherry-pick (AID 588343); type: functional; conditions: Homo sapiens
# [22] = biological target: Latent membrane protein 1 (Human herpesvirus 4 (strain B95-8), UniProt P03230); assay: TES1-eGFP NF-kB reporter inhibition versus Tet-On dsRED, dose response, selectivity assay for LMP1 NF-kB inhibitor project, imaging, HEK293T, dual-color eGFP/dsRED, cherry-picks (AID 588398); type: functional, cell-based
# [23] = biological target: Serine/threonine-protein kinase PAK 1 (Homo sapiens, UniProt Q13153); type: functional
# [24] = biological target: Protein kinase C zeta type (Homo sapiens, UniProt Q05513); type: functional;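 note: measured as one member of a broad kinase profiling panel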
# [25] = biological target: Calcium/calmodulin-dependent protein kinase type 1 (Homo sapiens, UniProt Q14012); type: functional
# [26] = biological target: Serine/threonine-protein kinase pim-1 (Homo sapiens, UniProt P11309); type: functional
# [27] = biological target: Protein kinase C delta type (Homo sapiens, UniProt Q05655); type: functional
# [28] = biological target: Serine/threonine-protein kinase MRCK alpha (Homo sapiens, UniProt Q5VT25); type: functional
# [29] = biological target: Protein kinase C gamma type (Homo sapiens, UniProt P05129); type: functional
# [30] = biological target: Tyrosine-protein kinase Lck (Homo sapiens, UniProt P06239); type: functional;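 note: lck was assayed as one member of a kinase panel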
# [31] = biological target: Vascular endothelial growth factor receptor 2 (Homo sapiens, UniProt P35968); type: functional
# [32] = biological target: Tyrosine-protein kinase Lyn (Homo sapiens, UniProt P07948); type: functional;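 note: lyn as one member of a kinase panel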
# [33] = biological target: Vascular endothelial growth factor receptor 3 (Homo sapiens, UniProt P35916); type: functional;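 note: value from a kinome-wide profiling panel, with FLT4 as the panel member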
# [34] = biological target: Macrophage colony-stimulating factor 1 receptor (Homo sapiens, UniProt P07333); type: functional;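 note: value comes from the Navigating the Kinome screening panel, CSF1R member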
# [35] = biological target: Tyrosine-protein kinase ABL1 (Homo sapiens, UniProt P00519); type: functional
# [36] = biological target: Mast/stem cell growth factor receptor Kit (Homo sapiens, UniProt P10721); type: functional;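 note: KIT entry within a kinase panel assay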
# [37] = biological target: Proto-oncogene tyrosine-protein kinase Src (Homo sapiens, UniProt P12931); type: functional;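 note: SRC entry within a kinome-wide kinase profiling panel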
# [38] = biological target: Tyrosine-protein kinase Blk (Homo sapiens, UniProt P51451); type: functional;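 note: obtained as one member of a kinome-wide kinase assay panel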
# [39] = biological target: Tyrosine-protein kinase Fyn (Homo sapiens, UniProt P06241); type: functional
# [40] = biological target: Vascular endothelial growth factor receptor 1 (Homo sapiens, UniProt P17948); type: functional;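 note: measured within a kinome-wide profiling panel, FLT1 as the panel member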
# [41] = biological target: Receptor-type tyrosine-protein kinase FLT3 (Homo sapiens, UniProt P36888); type: functional;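 note: FLT3 was tested as one member of a kinome-wide kinase panel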
# [42] = biological target: Death-associated protein kinase 3 (Homo sapiens, UniProt O43293); type: functional;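 note: measured as one member of a kinome-wide profiling panel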
# [43] = biological target: Dual specificity tyrosine-phosphorylation-regulated kinase 1B (Homo sapiens, UniProt Q9Y463); assay: Navigating the Kinome. Panel member name: DYRK1B; type: functional
# Activated CDC42 kinase 1 = Activated CDC42 kinase 1 (Homo sapiens, UniProt Q07912); assay: Navigating the Kinome. Panel member name: ACK1; type: functional
# [44] = biological target: Rho-associated protein kinase 1 (Homo sapiens, UniProt Q13464); type: functional;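 note: measured within a broad kinome-wide panel profiling many kinases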
# [45] = biological target: Dual specificity protein kinase CLK4 (Homo sapiens, UniProt Q9HAZ1); type: functional
# [46] = biological target: Casein kinase I isoform alpha (Homo sapiens, UniProt P48729); type: functional
# LIM domain kinase 1 = LIM domain kinase 1 (Homo sapiens, UniProt P53667); assay: Navigating the Kinome. Panel member name: LIMK1; type: functional
# [47] = biological target: T4, Neuropeptides B/W receptor type 1 (Homo sapiens, UniProt P48145); assay: GPR7 antagonist potency, late-stage follow-up, cell-based, fluorescence, dose response, set 5 (AID 588566); type: functional
# T4 sequence (P48145 whole entry): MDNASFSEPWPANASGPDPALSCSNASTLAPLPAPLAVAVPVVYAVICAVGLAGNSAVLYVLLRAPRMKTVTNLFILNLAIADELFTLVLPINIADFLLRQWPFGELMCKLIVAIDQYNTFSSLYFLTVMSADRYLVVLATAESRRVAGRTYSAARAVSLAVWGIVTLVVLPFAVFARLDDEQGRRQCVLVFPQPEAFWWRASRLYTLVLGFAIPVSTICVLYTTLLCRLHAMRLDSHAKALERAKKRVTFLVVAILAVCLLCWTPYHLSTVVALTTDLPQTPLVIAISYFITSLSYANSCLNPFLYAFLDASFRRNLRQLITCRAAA
# [48] = biological target: Melanin-concentrating hormone receptor 1 (Homo sapiens, UniProt Q99705); assay: Late-stage fluorescence-based counterscreen for antagonists of the G-protein coupled receptor 7 (GPR7): cell-based dose response assay to identify antagonists of the melanin-concentrating hormone receptor 1 (MCHR1) Set 5.; type: functional
# Melanin-concentrating hormone receptor 1, sequence (Q99705 whole entry): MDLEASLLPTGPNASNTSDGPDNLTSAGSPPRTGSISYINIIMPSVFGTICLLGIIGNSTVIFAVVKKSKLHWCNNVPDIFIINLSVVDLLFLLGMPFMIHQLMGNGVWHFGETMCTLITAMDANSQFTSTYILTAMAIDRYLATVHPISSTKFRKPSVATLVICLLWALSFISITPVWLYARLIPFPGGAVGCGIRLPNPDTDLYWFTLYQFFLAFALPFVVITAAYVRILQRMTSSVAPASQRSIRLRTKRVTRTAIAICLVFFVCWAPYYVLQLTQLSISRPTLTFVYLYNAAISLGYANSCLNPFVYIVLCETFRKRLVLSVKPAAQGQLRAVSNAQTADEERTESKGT
# T2 sequence (O43613 whole entry): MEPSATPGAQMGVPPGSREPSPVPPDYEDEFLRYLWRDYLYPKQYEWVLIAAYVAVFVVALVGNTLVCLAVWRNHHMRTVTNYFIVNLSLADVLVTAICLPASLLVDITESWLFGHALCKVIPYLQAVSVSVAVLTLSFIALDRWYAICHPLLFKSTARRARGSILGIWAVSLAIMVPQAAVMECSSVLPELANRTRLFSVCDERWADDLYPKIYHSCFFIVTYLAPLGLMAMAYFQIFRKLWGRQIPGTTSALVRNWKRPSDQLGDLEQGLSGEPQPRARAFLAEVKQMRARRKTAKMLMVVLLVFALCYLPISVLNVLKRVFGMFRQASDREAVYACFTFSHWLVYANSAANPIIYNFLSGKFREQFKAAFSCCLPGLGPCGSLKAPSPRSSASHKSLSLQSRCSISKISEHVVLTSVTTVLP
# T1 sequence (O43614 whole entry): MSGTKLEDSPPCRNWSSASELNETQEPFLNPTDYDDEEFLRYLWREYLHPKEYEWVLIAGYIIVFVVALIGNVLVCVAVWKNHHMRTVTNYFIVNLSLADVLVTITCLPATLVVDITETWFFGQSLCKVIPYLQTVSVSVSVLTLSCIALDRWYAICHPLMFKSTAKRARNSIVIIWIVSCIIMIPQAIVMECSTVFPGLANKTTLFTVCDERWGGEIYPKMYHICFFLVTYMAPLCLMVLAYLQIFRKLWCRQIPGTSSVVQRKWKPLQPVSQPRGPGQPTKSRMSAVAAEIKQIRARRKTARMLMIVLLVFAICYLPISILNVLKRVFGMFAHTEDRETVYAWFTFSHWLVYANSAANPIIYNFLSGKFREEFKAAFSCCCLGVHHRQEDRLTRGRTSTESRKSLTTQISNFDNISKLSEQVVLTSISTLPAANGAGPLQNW
# Tyrosine-protein kinase Lck, sequence (P06239 whole entry): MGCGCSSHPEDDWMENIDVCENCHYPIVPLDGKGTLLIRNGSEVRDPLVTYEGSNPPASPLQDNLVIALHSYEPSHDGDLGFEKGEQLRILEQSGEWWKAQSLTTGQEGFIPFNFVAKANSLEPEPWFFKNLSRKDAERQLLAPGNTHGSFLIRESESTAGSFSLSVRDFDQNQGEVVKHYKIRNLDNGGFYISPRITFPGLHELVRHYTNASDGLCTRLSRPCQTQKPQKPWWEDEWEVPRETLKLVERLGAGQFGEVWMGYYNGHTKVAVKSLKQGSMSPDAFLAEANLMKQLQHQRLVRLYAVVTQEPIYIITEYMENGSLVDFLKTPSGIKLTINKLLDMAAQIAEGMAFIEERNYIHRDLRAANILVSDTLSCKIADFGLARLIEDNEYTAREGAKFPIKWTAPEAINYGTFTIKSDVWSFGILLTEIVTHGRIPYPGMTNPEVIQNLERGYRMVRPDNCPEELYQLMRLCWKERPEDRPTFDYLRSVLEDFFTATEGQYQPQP
# Proto-oncogene tyrosine-protein kinase Src, sequence (P12931 2-536 limits assumed): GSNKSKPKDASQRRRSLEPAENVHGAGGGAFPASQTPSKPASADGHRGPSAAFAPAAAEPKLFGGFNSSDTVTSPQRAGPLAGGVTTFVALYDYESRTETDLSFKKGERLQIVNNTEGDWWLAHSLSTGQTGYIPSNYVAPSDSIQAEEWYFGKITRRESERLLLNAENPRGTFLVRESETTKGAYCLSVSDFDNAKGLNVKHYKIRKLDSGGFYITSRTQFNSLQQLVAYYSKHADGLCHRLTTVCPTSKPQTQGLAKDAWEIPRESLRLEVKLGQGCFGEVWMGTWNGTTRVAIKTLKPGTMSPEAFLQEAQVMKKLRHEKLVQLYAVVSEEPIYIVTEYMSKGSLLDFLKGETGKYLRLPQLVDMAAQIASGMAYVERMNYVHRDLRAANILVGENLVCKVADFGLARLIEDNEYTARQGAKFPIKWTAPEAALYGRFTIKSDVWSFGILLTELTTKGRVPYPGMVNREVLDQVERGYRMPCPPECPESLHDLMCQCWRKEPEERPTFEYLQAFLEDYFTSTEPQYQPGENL
# Dual specificity tyrosine-phosphorylation-regulated kinase 1B, sequence (Q9Y463 whole entry): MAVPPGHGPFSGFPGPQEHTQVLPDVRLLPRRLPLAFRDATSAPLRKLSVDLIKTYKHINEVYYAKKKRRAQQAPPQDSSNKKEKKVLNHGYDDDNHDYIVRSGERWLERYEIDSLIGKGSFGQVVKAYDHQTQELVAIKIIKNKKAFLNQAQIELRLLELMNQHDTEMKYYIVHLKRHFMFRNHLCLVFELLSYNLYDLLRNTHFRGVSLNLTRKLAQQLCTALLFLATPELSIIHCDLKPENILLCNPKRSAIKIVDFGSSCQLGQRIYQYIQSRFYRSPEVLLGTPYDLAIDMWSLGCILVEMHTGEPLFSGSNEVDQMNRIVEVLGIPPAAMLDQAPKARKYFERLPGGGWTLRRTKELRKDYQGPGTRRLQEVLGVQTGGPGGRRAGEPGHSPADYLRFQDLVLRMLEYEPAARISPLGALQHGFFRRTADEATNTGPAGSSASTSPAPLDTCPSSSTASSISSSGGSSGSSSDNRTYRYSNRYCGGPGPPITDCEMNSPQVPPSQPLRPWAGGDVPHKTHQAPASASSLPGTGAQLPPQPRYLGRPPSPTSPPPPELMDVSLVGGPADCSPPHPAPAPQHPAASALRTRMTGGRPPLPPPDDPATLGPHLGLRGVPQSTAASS
# Death-associated protein kinase 3, sequence (O43293 whole entry): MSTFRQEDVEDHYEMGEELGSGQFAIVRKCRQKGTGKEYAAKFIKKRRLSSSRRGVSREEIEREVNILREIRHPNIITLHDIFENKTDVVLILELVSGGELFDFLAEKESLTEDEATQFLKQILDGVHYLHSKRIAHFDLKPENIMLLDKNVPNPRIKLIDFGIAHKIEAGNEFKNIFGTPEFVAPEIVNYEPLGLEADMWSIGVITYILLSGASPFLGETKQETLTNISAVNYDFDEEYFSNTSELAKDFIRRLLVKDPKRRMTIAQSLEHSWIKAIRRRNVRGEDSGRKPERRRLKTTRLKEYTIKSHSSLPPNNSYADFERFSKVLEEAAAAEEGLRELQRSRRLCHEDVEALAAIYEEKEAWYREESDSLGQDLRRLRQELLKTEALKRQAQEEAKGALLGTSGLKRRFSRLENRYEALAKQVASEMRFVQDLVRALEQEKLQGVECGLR
# Protein kinase C delta type, sequence (Q05655 whole entry): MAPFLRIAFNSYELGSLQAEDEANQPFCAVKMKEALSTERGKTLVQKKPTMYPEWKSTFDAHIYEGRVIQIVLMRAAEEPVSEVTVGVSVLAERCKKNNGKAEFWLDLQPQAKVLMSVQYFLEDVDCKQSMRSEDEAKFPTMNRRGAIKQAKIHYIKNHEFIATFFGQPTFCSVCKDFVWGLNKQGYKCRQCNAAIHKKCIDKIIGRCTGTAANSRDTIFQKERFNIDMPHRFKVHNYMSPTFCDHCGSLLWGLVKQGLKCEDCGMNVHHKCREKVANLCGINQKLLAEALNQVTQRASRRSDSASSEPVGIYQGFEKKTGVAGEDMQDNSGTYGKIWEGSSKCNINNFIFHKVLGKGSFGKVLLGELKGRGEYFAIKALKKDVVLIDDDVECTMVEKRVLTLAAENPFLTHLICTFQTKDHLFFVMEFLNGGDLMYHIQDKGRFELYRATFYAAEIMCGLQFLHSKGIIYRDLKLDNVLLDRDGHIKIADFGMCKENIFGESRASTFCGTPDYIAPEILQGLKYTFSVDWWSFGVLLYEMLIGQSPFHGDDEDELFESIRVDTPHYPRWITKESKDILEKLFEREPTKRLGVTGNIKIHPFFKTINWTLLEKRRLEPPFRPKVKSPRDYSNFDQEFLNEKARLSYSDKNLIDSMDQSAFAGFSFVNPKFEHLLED
# Serine/threonine-protein kinase PAK 1, sequence (Q13153 whole entry): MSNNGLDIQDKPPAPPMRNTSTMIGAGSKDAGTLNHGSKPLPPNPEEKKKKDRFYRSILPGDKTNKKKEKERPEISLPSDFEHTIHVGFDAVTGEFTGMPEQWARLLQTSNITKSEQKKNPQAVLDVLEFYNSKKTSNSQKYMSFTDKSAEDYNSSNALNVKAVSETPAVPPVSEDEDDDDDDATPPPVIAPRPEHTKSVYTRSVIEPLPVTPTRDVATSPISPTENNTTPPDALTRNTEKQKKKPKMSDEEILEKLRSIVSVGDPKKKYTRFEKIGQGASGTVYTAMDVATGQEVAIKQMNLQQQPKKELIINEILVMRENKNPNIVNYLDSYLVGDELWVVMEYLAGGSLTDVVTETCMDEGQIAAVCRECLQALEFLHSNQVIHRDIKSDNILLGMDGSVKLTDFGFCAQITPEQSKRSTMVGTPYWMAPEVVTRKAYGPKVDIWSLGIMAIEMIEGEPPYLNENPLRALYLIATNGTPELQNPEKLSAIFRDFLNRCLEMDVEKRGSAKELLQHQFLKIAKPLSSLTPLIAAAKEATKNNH
# Calcium/calmodulin-dependent protein kinase type 1, sequence (Q14012 whole entry): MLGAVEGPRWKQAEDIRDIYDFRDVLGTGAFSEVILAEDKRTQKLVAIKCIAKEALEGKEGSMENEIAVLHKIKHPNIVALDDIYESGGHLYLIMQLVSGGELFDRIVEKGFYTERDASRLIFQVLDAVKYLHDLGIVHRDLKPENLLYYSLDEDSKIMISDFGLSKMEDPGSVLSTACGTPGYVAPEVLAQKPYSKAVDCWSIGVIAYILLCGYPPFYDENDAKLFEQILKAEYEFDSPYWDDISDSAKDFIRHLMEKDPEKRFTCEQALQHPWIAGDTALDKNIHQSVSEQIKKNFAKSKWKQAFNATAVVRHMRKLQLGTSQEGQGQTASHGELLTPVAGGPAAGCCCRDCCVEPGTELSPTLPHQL
compound,measurement,setting,value
CCOc1ccc(-c2cc(C)[n+](CCc3ccc(OC)c(OC)c3)c(-c3ccc(OCC)cc3)c2)cc1.[O-][Cl+3]([O-])([O-])[O-],CC50,[1],1.3 µM (active)
same,CC50,[2],9.14 µM (active)
same,CC50,[3],18.2 µM (active)
same,CC50,[4],2.28 µM (active)
same,CC50,[5],19.7 µM (active)
same,CC50,[6],11.9 µM (active)
same,CC50,[7],21 µM (active)
same,CC50,[8],13.1 µM (active)
same,CC50,[9],> 40 µM (active)
same,CC50,[10],1.7 µM (active)
CNc1oc(-c2cccc3ccccc23)nc1C#N,IC50,CHO-K1,> 66.2 µM (inactive)
same,IC50,Orexin receptor type 2 [11],> 50 µM (inactive)
same,IC50,[12],0.887 µM (active)
same,IC50,Orexin receptor type 2 [13],> 88.8 µM (inactive)
same,IC50,[14],3.48 µM (active)
same,IC50,[15],> 49.7 µM (inactive)
CC1=C(C(=O)OCc2ccc3c(c2)OCO3)C(c2ccc(F)cc2)NC(=O)N1 (configuration not stated),EC50,[16],< 0.16 µM (active)
same,AC50,[17],1.85 µM (active)
same,AC50,[18],0.284 µM (active)
same,AC50,[19],> 52 µM (inactive)
same,AC50,[20],0.576 µM (active)
same,AC50,[21],1.47 µM (active)
same,AC50,HEK293,3.36 µM (active)
same,AC50,[22],9.67 µM (active)
CC(C)c1ccc2c(c1)c(SC(C)(C)C)c(CC(C)(C)CNCCCO)n2Cc1ccc(Cl)cc1,Ki,[23],2 µM (active)
same,Ki,[24],7.94 µM (active)
same,Ki,[25],7.94 µM (active)
same,Ki,[26],5.01 µM (active)
same,Ki,[27],2.51 µM (active)
same,Ki,[28],6.31 µM (active)
same,Ki,[29],3.98 µM (active)
Cc1ccc(F)c(NC(=O)Nc2ccc(-c3cccc4[nH]nc(N)c34)c(F)c2)c1,Ki,[30],0.501 µM (active)
same,Ki,[31],0.0126 µM (active)
same,Ki,[32],0.316 µM (active)
same,Ki,[33],0.00398 µM (active)
same,Ki,[34],0.00316 µM (active)
same,Ki,[35],> 0.631 µM (inactive)
same,Ki,[36],0.002 µM (active)
same,Ki,[37],0.501 µM (active)
same,Ki,[38],0.251 µM (active)
same,Ki,[39],0.158 µM (active)
same,Ki,[40],0.001 µM (active)
same,Ki,[41],0.00316 µM (active)
Cn1c(N)nc2sc(C(N)=O)cc21,Ki,[42],10 µM (active)
same,Ki,[43],79.4 µM (active)
same,Ki,Activated CDC42 kinase 1,79.4 µM (active)
same,Ki,[44],39.8 µM (active)
same,Ki,[45],25.1 µM (active)
same,Ki,[46],12.6 µM (active)
same,Ki,LIM domain kinase 1,79.4 µM (active)
O=c1c(Oc2ccc(Cl)c(Cl)c2)c(Cl)cnn1Cc1cccc2ccccc12,IC50,[47],> 20 µM (inactive)
same,IC50,[48],> 20 µM (inactive)
